# Results as given in patent US20220016098A1, “ORALLY ADMINISTERED PHARMACEUTICAL COMPOSITION COMPRISING FAB I INHIBITORS AND METHOD FOR PREPARING SAME” (priority 2018, published 2022).
# Like-named read-outs stand apart in the source and are kept apart here.
# How the values were obtained:
# [1] = system: MRSA strains (methicillin-resistant Staphylococcus aureus); experiment: MIC test on MRSA clinical isolates; assay type: cell-based; details: for MIC: Staphylococcus aureus, MRSA, read-out: MIC60
# Method: In order to verify the inhibitory effect of the compound of formula 1 on antibiotic-resistant strains, drug susceptibility was evaluated by treating the compound of formula 1 with Staphylococcus aureus phenotype isolated from each patient. […] Appelbaum at Hershey Hospital, who is recognized for its authority in the field of anti-infection worldwide, and about 100 MRSA strains which is currently socially problematic.
# [2] = system: Staphylococcus aureus 13B-382 (MRSA, clinical strain); experiment: Susceptibility test (MIC), clinical strain; assay type: cell-based
# [3] = system: Staphylococcus aureus ATCC 29213 (MSSA, standard strain); experiment: Susceptibility test (MIC), standard strain; assay type: cell-based
# [4] = Solubility in distilled water (Experimental Example 6); assay type: physicochemical
# Method: First, an excess of each substance was added to distilled water and mixed at room temperature for 12 hours. After standing for 2 hours to take the supernatant, it was filtered using a filter having 0.25 μm pores. After diluting this in methanol again, HPLC analysis was performed.
# [5] = Solubility of the compound of formula 1 in various solvents (HPLC); assay type: physicochemical; details: thermodynamic from solid
# Method: Prior to preparing the salt of the compound of formula 1, the compound of formula 1 was analyzed to determine the solubility in various solvents. First, the compound of formula 1 was supersaturated in a pharmaceutically acceptable solvent as shown in Table 5 and stirred in a dark room at room temperature for 12 hours. It was first centrifuged to take a supernatant, and then again filtered with a 0.25 μm PVDF filter to remove insoluble materials remaining in the solution. The filtrate was diluted with methanol and then subjected to HPLC analysis to quantify the solubility. In addition, HPLC analysis conditions are as follows.
# 20 μL of each of the test solution and the standard solution were tested according to a liquid chromatography method (HPLC) of general test methods of the Korean Pharmacopoeia under the following conditions, and the peak area of the main component of each solution was measured.
# Detector: UV spectrophotometer (measurement wavelength 286 nm)
# Column: Aegispak C18-L (4.6 mm×250 mm, 5 μm) column
# Column temperature: 25° C.
# Mobile phase: Acetonitrile:water=3:2
compound,measurement,setting,value
CCCCCCCCCC(=O)N[C@@H](Cc1c[nH]c2ccccc12)C(=O)N[C@H](CC(N)=O)C(=O)N[C@@H](CC(=O)O)C(=O)N[C@@H]1C(=O)NCC(=O)N[C@@H](CCCN)C(=O)N[C@@H](CC(=O)O)C(=O)N[C@H](C)C(=O)N[C@@H](CC(=O)O)C(=O)NCC(=O)N[C@H](CO)C(=O)N[C@@H]([C@H](C)CC(=O)O)C(=O)N[C@@H](CC(=O)c2ccccc2N)C(=O)O[C@@H]1C [Daptomycin],MIC,"[1]; Methicillin-resistant, n = 100",0.5 mg/L
CC(=O)NC[C@H]1CN(c2ccc(N3CCOCC3)c(F)c2)C(=O)O1 [Linezolid],MIC,"[1]; Methicillin-resistant, n = 100",1 mg/L
Teicoplanin,MIC60,"[1]; Methicillin-resistant, n = 100",1.0 mg/L
C[C@H]1COc2c(N3CCN(C)CC3)c(F)cc3c(=O)c(C(=O)O)cn1c23 [Levofloxacin],MIC,"[1]; Methicillin-resistant, n = 100",1 mg/L
CN[C@H](CC(C)C)C(=O)N[C@H]1C(=O)N[C@@H](CC(N)=O)C(=O)N[C@H]2C(=O)N[C@H]3C(=O)N[C@H](C(=O)N[C@H](C(=O)O)c4cc(O)cc(O)c4-c4cc3ccc4O)[C@H](O)c3ccc(c(Cl)c3)Oc3cc2cc(c3O[C@@H]2O[C@H](CO)[C@@H](O)[C@H](O)[C@H]2O[C@H]2C[C@](C)(N)[C@H](O)[C@H](C)O2)Oc2ccc(cc2Cl)[C@H]1O [Vancomycin],MIC,[1],1 mg/L
same,MIC,[2],1 mg/L
same,MIC,[3],0.5 mg/L
"Cc1c(N)cccc1Cn1ccc(OCCc2cccs2)cc1=O [compound of formula 1, 1-(3-amino-2-methylbenzyl)-4-(2-thiophen-2-yl-ethoxy)-1H-pyridin-2-one]",pH,[4]; of the solubility test in distilled water,6.8
same,solubility at 12 h,"[4]; pH 6.8, thermodynamic from solid, distilled water, room temperature, 12 hours",0.0025 mg/mL
same,solubility at 12 h,"[5]; PEG 300, organic solvent or mixture, PEG 300, room temperature, read-out: Solubility",22 mg/mL
same,solubility at 12 h,"[5]; dichloromethane, organic solvent or mixture, Dichloromethane, room temperature, read-out: Solubility",> 50 mg/mL
same,solubility at 12 h,"[5]; methanol, organic solvent or mixture, Methanol, room temperature, read-out: Solubility",< 10 mg/mL
same,solubility at 12 h,"[5]; pH 1.2 aqueous solution, pH 1.2, simulated gastric fluid, pH 1.2 aqueous solution, room temperature, read-out: Solubility",~0.9 mg/mL
same,solubility at 12 h,"[5]; water, Water, room temperature, read-out: Solubility",0.002 mg/mL
same,solubility at 12 h,"[5]; water, distilled water / water (neutral), read-out: Solubility in water",0.0025 mg/mL
CC[C@H]1OC(=O)[C@H](C)[C@@H](O[C@H]2C[C@@](C)(OC)[C@@H](O)[C@H](C)O2)[C@H](C)[C@@H](O[C@@H]2O[C@H](C)C[C@H](N(C)C)[C@H]2O)[C@](C)(O)C[C@@H](C)CN(C)[C@H](C)[C@@H](O)[C@]1(C)O [Azithromycin],MIC,"[1]; Methicillin-resistant, n = 100",> 64 mg/L
